The source of these data is patent publication US9233979B2, “Compounds that are ERK inhibitors” (Merck Sharp & Dohme Corp., priority 2012, dated 2016).

What is called IC50 is the point on the concentration scale where inhibition reaches its midpoint.

Molecules are shown by their SMILES.

This test has as its target phosphorylated active hERK2 enzyme (Homo sapiens (Human), UniProt P28482). The test can be described thus: Active Human ERK2 (hERK2) Activity Assay (IMAP-FP). The test is classed as biochemical. The settings on record: Table 6, 0.5 nM hERK2, 30 μM ATP, 10 point titration, read-out: AERK2 IC50. Put shortly: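 IMAP detection beads in buffer with 24 mM NaCl stopped the reaction, and fluorescence polarization was read after 60 min binding.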

Chain of phosphorylated active hERK2 enzyme (P28482 whole entry): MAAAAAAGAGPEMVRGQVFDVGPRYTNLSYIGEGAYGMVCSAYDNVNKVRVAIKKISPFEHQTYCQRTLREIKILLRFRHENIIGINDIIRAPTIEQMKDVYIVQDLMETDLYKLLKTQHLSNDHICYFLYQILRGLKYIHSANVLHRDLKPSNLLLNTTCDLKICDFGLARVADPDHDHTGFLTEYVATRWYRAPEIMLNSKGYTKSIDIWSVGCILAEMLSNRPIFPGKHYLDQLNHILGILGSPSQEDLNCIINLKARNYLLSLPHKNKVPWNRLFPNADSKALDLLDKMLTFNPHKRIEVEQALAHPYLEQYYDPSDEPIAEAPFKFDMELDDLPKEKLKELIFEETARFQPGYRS

For the molecule `CCN(C(C)=O)c1n[nH]c2cc(NC(=O)N[C@H](C)c3ccccc3)ncc12` [Example 350, N-ethyl-N-[6-({[(1R)-1-phenyl-ethyl]carbamoyl}-amino)-1H-pyrazolo[4,3-c]-pyridin-3-yl]-acetamide], the IC50 worked out at 33.3 nM.

For `C[C@@H](NC(=O)Nc1cc2[nH]nc(NC(C)(C)C)c2cn1)c1ccccc1` [Example 351, 1-[3-(tert-butylamino)-1H-pyrazolo[4,3-c]-pyridin-6-yl]-3-[(1R)-1-phenylethyl]urea], the IC50 was 88 nM. For `Nc1n[nH]c2cc(NC(=O)N[C@H](COC(F)F)c3ccccc3)ncc12` [Example 352, 1-(3-amino-1H-pyrazolo[4,3-c]-pyridin-6-yl)-3-[(1S)-2-(difluoromethoxy)-1-phenylethyl]urea], the IC50 came to 1.2 nM. Under `CCNc1n[nH]c2cc(NC(=O)N[C@H](COC(F)F)c3ccccc3)ncc12` [Example 353, 1-[(1S)-2-(difluoromethoxy)-1-phenylethyl]-3-[3-(ethylamino)-1H-pyrazolo[4,3-c]pyridin-6-yl]urea] stands 0.6 nM; under `C[C@H](Nc1n[nH]c2cc(NC(=O)N[C@H](C)c3ccccc3)ncc12)C(F)F` [Example 354, 1-(3-{[(1S)-2,2-difluoro-1-methyl-ethyl]amino}-1H-pyrazolo[4,3-c]-pyridin-6-yl)-3-[(1R)-1-phenylethyl]urea], 2.2 nM; under `C[C@@H](NC(=O)Nc1cc2[nH]nc(N[C@H](C)C(F)F)c2cn1)c1ccccc1` [Example 355, 1-(3-{[(1R)-2,2-difluoro-1-methyl-ethyl]amino}-1H-pyrazolo[4,3-c]-pyridin-6-yl)-3-[(1R)-1-phenylethyl]urea], 2.9 nM. In the case of `C[C@@H](NC(=O)Nc1cc2[nH]nc(NC3(C)CCC3)c2cn1)c1ccccc1` [Example 356, 1-{3-[(1-methylcyclo-butyl)amino]-1H-pyrazolo[4,3-c]-pyridin-6-yl}-3-[(1R)-1-phenylethyl]urea] it was 54.1 nM. Under `CSC[C@@H](NC(=O)Nc1cc2[nH]nc(N)c2cn1)c1ccccc1` [Example 357, 1-(3-amino-1H-pyrazolo[4,3-c]-pyridin-6-yl)-3-[(1S)-2-(methylsulfanyl)-1-phenylethyl]urea] stands 1.4 nM; under `CCNc1n[nH]c2cc(NC(=O)N[C@H](CSC)c3ccccc3)ncc12` [Example 358, 1-[3-(ethylamino)-1H-pyrazolo[4,3-c]pyridin-6-yl]-3-[(1S)-2-(methylsulfanyl)-1-phenylethyl]urea], 0.8 nM; under `C[C@@H](NC(=O)Nc1cc2[nH]nc(NC3CCSC3)c2cn1)c1ccccc1` (stereo partly drawn) [Example 359, 1-[(1R)-1-phenylethyl]-3-[3-(tetrahydrothiophen-3-ylamino)-1H-pyrazolo[4,3-c]-pyridin-6-yl]urea], 1.2 nM.

On to `C[C@@H](NC(=O)Nc1cc2[nH]nc(NC3CC[S+]([O-])C3)c2cn1)c1ccccc1` (stereo partly drawn) [Example 360, 1-{3-[(1-oxidotetrahydrothio-phen-3-yl)amino]-1H-pyrazolo[4,3-c]pyridin-6-yl}-3-[(1R)-1-phenylethyl]urea], for which the 50% inhibitory concentration (IC50) stood at 2.6 nM. In the case of `COCC(C)(C)Nc1n[nH]c2cc(NC(=O)N[C@H](C)c3ccccc3)ncc12` [Example 361, 1-{3-[(2-methoxy-1,1-dimethylethyl)-amino]-1H-pyrazolo[4,3-c]-pyridin-6-yl}-3-[(1R)-1-phenylethyl]urea] it was 385 nM; in that of `Nc1n[nH]c2c(F)c(NC(=O)N[C@H](COC(F)F)c3ccccc3)ncc12` [Example 362, 1-(3-amino-7-fluoro-1H-pyrazolo[4,3-c]-pyridin-6-yl)-3-[(1S)-2-(difluoromethoxy)-1-phenylethyl]urea], 1.3 nM; in that of `Nc1n[nH]c2c(Cl)c(NC(=O)N[C@H](COC(F)F)c3ccccc3)ncc12` [Example 363, 1-(3-amino-7-chloro-1H-pyrazolo[4,3-c]pyridin-6-yl)-3-[(1S)-2-(difluoromethoxy)-1-phenylethyl]urea], 52.2 nM.
